Data reported in patent US20250296936A1, “SARS-COV2 MAIN PROTEASE INHIBITORS” (Gilead Sciences, Inc., priority 2024, published 2025).

test system: SARS-CoV-2-NLuc in A549-hACE2 cells; experiment: microbe, parasite or virus in culture; assay type: cell-based, SARS Coronavirus 2; conditions: Severe acute respiratory syndrome coronavirus, 48 h, read-out: MPro EC50 (nM)

Going from COc1cc(-c2cc3[nH]c(=O)n(-c4cnnc(C)c4)c(=O)c3o2)c(Cl)cc1F [Example 12] to COc1cc(-c2cc3[nH]c(=O)n(-c4cncc(C)c4)c(=O)c3o2)c(Cl)cc1F [Example 56], the EC50 falls from greater than 10000 nM to 195 nM. The second is the more potent here.

O=c1[nH]c2oc(-c3ccccc3)nc2c(=O)n1-c1cncc2ccccc12 [Example 13] and O=c1[nH]c2oc(-c3ccccc3Cl)cc2c(=O)n1-c1cncc2ccccc12 [Example 14] are within 1.5-fold of each other in EC50: 4240 nM for the first, 3330 nM for the second.

Compared with COc1cc(-c2cc3[nH]c(=O)n(-c4cccnn4)c(=O)c3o2)c(Cl)cc1F [Example 15], COc1cc(-c2cc3c(o2)c(=O)n(-c2cccnn2)c(=O)n3CCC#N)c(Cl)cc1F [Example 26] is lower in EC50: greater than 10000 nM for the first, 408 nM for the second. The second is the more potent here.

Compared with COc1cc(-c2cc3c(o2)c(=O)n(-c2cncc4cnn(C)c24)c(=O)n3CCC#N)c(Cl)cc1F [Example 17], COc1cc(-c2cc3c(o2)c(=O)n(-c2cncc4cnn(C)c24)c(=O)n3CC#N)c(Cl)cc1F [Example 39] is 2.4-fold higher in EC50: 20.7 nM for the first, 50.7 nM for the second. The first is the more potent here.

Going from Cn1ncc2cncc(-n3c(=O)c4oc(-c5ccccc5Cl)cc4n(CCC#N)c3=O)c21 [Example 18] to Cn1ncc2cncc(-n3c(=O)c4oc(-c5ccccc5Cl)cc4n(CC#N)c3=O)c21 [Example 38], the EC50 rises from 27.8 nM to 88 nM (3.2-fold). The first is the more potent here.

Going from N#CCCn1c(=O)n(-c2cncc3ccccc23)c(=O)c2oc(-c3ccccc3Cl)cc21 [Example 19] to N#CCn1c(=O)n(-c2cncc3ccccc23)c(=O)c2oc(-c3ccccc3Cl)cc21 [Example 40], the EC50 rises from 13 nM to 20.1 nM (1.5-fold).

COc1ccc2cncc(-n3c(=O)c4oc(-c5ccccc5Cl)cc4n(CCC#N)c3=O)c2c1 [Example 20] and COc1ccc2cncc(-n3c(=O)c4oc(-c5ccccc5Cl)cc4n(CC#N)c3=O)c2c1 [Example 41] are within 1.5-fold of each other in EC50: 17.1 nM for the first, 16.6 nM for the second.

N#CCCn1c(=O)n(-c2cncc3c2CCCC3)c(=O)c2oc(-c3ccccc3Cl)cc21 [Example 21] and N#CCn1c(=O)n(-c2cncc3c2CCCC3)c(=O)c2oc(-c3ccccc3Cl)cc21 [Example 42] are within 1.5-fold of each other in EC50: 29.6 nM for the first, 36.7 nM for the second.

N#CCCn1c(=O)n(-c2cncc3ccc(F)cc23)c(=O)c2oc(-c3ccccc3Cl)cc21 [Example 22] and N#CCn1c(=O)n(-c2cncc3ccc(F)cc23)c(=O)c2oc(-c3ccccc3Cl)cc21 [Example 43] are within 1.5-fold of each other in EC50: 19 nM for the first, 25.3 nM for the second.

Going from Cc1cncc(-n2c(=O)c3oc(-c4ccccc4Cl)cc3n(CCC#N)c2=O)c1 [Example 23] to Cc1cncc(-n2c(=O)c3oc(-c4ccccc4Cl)cc3n(CC#N)c2=O)c1 [Example 45], the EC50 rises from 24.1 nM to 52.3 nM (2.2-fold). The first is the more potent here.

First: Cn1ncc2cncc(-n3c(=O)c4oc(-c5ccc(F)cc5Cl)cc4n(CCC#N)c3=O)c21 [Example 24]
Second: N#CCCn1c(=O)n(-c2cncc3ccccc23)c(=O)c2oc(-c3ccc(F)cc3Cl)cc21 [Example 25]
The EC50 of the first is 1.7-fold higher: 71.4 nM for the first, 41.7 nM for the second.

First: COc1cc(-c2cc3c(o2)c(=O)n(-c2cnnc(C)c2)c(=O)n3CCC#N)c(Cl)cc1F [Example 27]
Second: COc1cc(-c2cc3c(o2)c(=O)n(-c2cncc(C)c2)c(=O)n3CCC#N)c(Cl)cc1F [Example 58]
The EC50 of the first is 260-fold higher: 5250 nM for the first, 19.9 nM for the second. The second is the more potent here.

Going from Cn1ncc2cncc(-n3c(=O)c4oc(-c5ccccc5Cl)cc4n(C)c3=O)c21 [Example 29] to Cn1ncc2cncc(-n3c(=O)c4oc(-c5ccccc5Cl)cc4n(CC4(C#N)CC4)c3=O)c21 [Example 48], the EC50 falls from 1170 nM to 8.36 nM (140-fold). The second is the more potent here.

Compared with COc1cc(-c2cc3c(o2)c(=O)n(-c2cncc4cnn(C)c24)c(=O)n3C)c(Cl)cc1F [Example 30], COc1cc(-c2cc3c(o2)c(=O)n(-c2cncc4cnn(C)c24)c(=O)n3CC2(C#N)CC2)c(Cl)cc1F [Example 49] is 56-fold lower in EC50: 683 nM for the first, 12.2 nM for the second. The second is the more potent here.

Going from Cn1c(=O)n(-c2cncc3ccccc23)c(=O)c2oc(-c3ccccc3Cl)cc21 [Example 31] to Cn1c(=O)n(-c2cncc3ccccc23)c(=O)c2cc(-c3ccccc3Cl)oc21 [Example 33], the EC50 falls from 565 nM to 145 nM (3.9-fold). The second is the more potent here.

First: COc1ccc2cncc(-n3c(=O)c4oc(-c5ccccc5Cl)cc4n(C)c3=O)c2c1 [Example 32]
Second: COc1ccc2cncc(-n3c(=O)c4oc(-c5ccccc5Cl)cc4n(CC4(C#N)CC4)c3=O)c2c1 [Example 51]
The EC50 of the first is 31-fold higher: 381 nM for the first, 12.1 nM for the second. The second is the more potent here.

Cn1c(=O)n(-c2cncc3c2CCCC3)c(=O)c2oc(-c3ccccc3Cl)cc21 [Example 34] and Cc1cncc(-n2c(=O)c3oc(-c4ccccc4Cl)cc3n(C)c2=O)c1 [Example 35] are within 1.5-fold of each other in EC50: 960 nM for the first, 726 nM for the second.

Compared with Cn1c(=O)n(-c2cncc3ccccc23)c(=O)c2oc(-c3ccc(F)cc3Cl)cc21 [Example 36], N#CCn1c(=O)n(-c2cncc3ccccc23)c(=O)c2oc(-c3ccc(F)cc3Cl)cc21 [Example 46] is 56-fold lower in EC50: 3270 nM for the first, 58.4 nM for the second. The second is the more potent here.

Compared with N#CC1(Cn2c(=O)n(-c3cncc4ccccc34)c(=O)c3oc(-c4ccccc4Cl)cc32)CC1 [Example 50], N#CC1(Cn2c(=O)n(-c3cncc4ccc(F)cc34)c(=O)c3oc(-c4ccccc4Cl)cc32)CC1 [Example 52] is 1.7-fold higher in EC50: 6.99 nM for the first, 11.8 nM for the second. The first is the more potent here.

Cc1cncc(-n2c(=O)c3oc(-c4ccccc4Cl)cc3n(CC3(C#N)CC3)c2=O)c1 [Example 53] and N#CC1(Cn2c(=O)n(-c3cncc4ccccc34)c(=O)c3oc(-c4ccc(F)cc4Cl)cc32)CC1 [Example 54] are within 1.5-fold of each other in EC50: 12.8 nM for the first, 18 nM for the second.

same assay, conditions: Severe acute respiratory syndrome coronavirus, 48 h; read-out: MPro EC50

In order of falling EC50:
1. COc1cc(-c2cc3c(o2)c(=O)n(-c2cncc4ccccc24)c(=O)n3C)c(Cl)cc1F [Example 28, 6-(2-chloro-4-fluoro-5-methoxy-phenyl)-3-(4-isoquinolyl)-1-methyl-furo[3,2-d]pyrimidine-2,4-dione]  288 nM
2. COc1cc(-c2cc3[nH]c(=O)n(-c4cncc5cccnc45)c(=O)c3o2)c(Cl)cc1F [Example 55, 6-(2-chloro-4-fluoro-5-methoxyphenyl)-3-(1,6-naphthyridin-8-yl)furo[3,2-d]pyrimidine-2,4(1H,3H)-dione]  250 nM
3. COc1cc(-c2cc3[nH]c(=O)n(-c4cncc5ccccc45)c(=O)c3o2)c(Cl)cc1F [Example 11, 6-(2-chloro-4-fluoro-5-methoxy-phenyl)-3-(4-isoquinolyl)-1H-furo[3,2-d]pyrimidine-2,4-dione]  81.5 nM
4. COc1cc(-c2cc3c(o2)c(=O)n(-c2cncc4ccccc24)c(=O)n3CC2(C#N)CC2)c(Cl)cc1F [Example 47, 1-((6-(2-chloro-4-fluoro-5-methoxyphenyl)-3-(isoquinolin-4-yl)-2,4-dioxo-3,4-dihydrofuro[3,2-d]pyrimidin-1(2H)-yl)methyl)cyclopropane-1-carbonitrile]  29.4 nM
5. COc1cc(-c2cc3c(o2)c(=O)n(-c2cncc4cccnc24)c(=O)n3CCC#N)c(Cl)cc1F [Example 57, 3-(6-(2-chloro-4-fluoro-5-methoxyphenyl)-3-(1,6-naphthyridin-8-yl)-2,4-dioxo-3,4-dihydrofuro[3,2-d]pyrimidin-1(2H)-yl)propanenitrile]  19.7 nM
6. COc1cc(-c2cc3c(o2)c(=O)n(-c2cncc4ccccc24)c(=O)n3CC#N)c(Cl)cc1F [Example 37, 2-(6-(2-chloro-4-fluoro-5-methoxyphenyl)-3-(isoquinolin-4-yl)-2,4-dioxo-3,4-dihydrofuro[3,2-d]pyrimidin-1(2H)-yl)acetonitrile]  15.8 nM
7. COc1cc(-c2cc3c(o2)c(=O)n(-c2cncc4ccccc24)c(=O)n3CCC#N)c(Cl)cc1F [Example 16, 3-(6-(2-chloro-4-fluoro-5-methoxyphenyl)-3-(isoquinolin-4-yl)-2,4-dioxo-3,4-dihydrofuro[3,2-d]pyrimidin-1(2H1)-yl)propanenitrile]  4.36 nM
